Drawing on patent US20060079453A1, “Hla binding peptides and their uses” (priority 2002, published 2006), this text covers IC50 for 13 sequences.

Holding throughout (experiment): biochemical
Common to all, as to format: binding

Test [1] addresses HLA-DR DRB1*0301 (DR3) (Homo sapiens, UniProt P01903+P01911, A100K/A102G/A103R/A169T/F55Y/I96L/K41T/L162R/M171V/P40S/Q125H/Q178H/Q39Y/R42S/S66N/T106N/T262R/W38E/Y61H).
Test [2] concerns the target HLA-DR DRB1*0401 (DR4) (Homo sapiens, UniProt P01903+P01911, A100K/A169T/F76Y/I96L/K127E/L162R/M171V/N62H/P40V/Q125Y/R42H/S133A/S149N/S66Y/V115G/V209L/W38E).
The target of test [3] is HLA-DR DRB1*0701 (DR7) (Homo sapiens, UniProt P01903+P01911, A100R/A102G/A103Q/D57E/D86V/E43K/F76Y/K127E/L162R/M171V/P40G/Q125H/Q99D/R33Q/R42Y/R54Q/S133A/S66F/T210M/V115G/Y107V/Y59L/Y89S).
Test [4] addresses HLA-DR DRB1*0802 (DR8) (Homo sapiens, UniProt P01903+P01911, A100R/A103L/A169T/F76Y/H45Y/I96F/K41T/L162R/M171V/P40S/Q125H/Q178H/Q39Y/Q99D/R218S/R42G/S66Y/V115G/W38E).
Test [5] addresses HLA-DR DRB1*0101 (DR1) (Homo sapiens, UniProt P01903+P01911, A100R/D57E/F55L/F60I/F76Y/I96L/L162R/M171V/P40L/Q125E/R42F/V115G/Y59C).
The target in test [6] is HLA-DR DRB1*1501 (DR15) (Homo sapiens, UniProt P01903+P01911). Conditions: DRBI *1501.
Test [7] deals with HLA-DR DRB4*0101 (DR53) (Homo sapiens, UniProt P01903+P13762, G164S). Particulars: DRB4 *0101.
For test [8], the target named is HLA-DR DRB5*0101 (DR51) (Homo sapiens, UniProt P01903+Q30154). Particulars: DRB5 *0101.
The target in test [9] is HLA-DR DRB1*1302 (DR13) (Homo sapiens, UniProt P01903+P01911, A100E/A169T/K41T/L162R/M171V/P40S/Q125H/Q178H/Q39Y/Q99D/R42S/S66N/T262R/V115G/W38E/Y61H). Conditions: DRBI *1302.
In test [10] the target is HLA-DR DRB1*0901 (DR9) (Homo sapiens, UniProt P01903+P01911, A100R/A103E/D57H/D86V/F55Y/F60I/F76Y/I96F/K127E/L162R/M171V/P40D/Q125H/Q99R/R33Q/R42F/S133A/S66N/T210M/V115G/W38K/Y107V/Y59G/Y89S). Conditions: read-out: DRB1 *0901.

Where two headings read alike, the source gives them in different places. No end group written: not given here.

Chain of HLA-DR DRB1*1302 (DR13) (P01903 26-254 limits assumed, other chains not shown): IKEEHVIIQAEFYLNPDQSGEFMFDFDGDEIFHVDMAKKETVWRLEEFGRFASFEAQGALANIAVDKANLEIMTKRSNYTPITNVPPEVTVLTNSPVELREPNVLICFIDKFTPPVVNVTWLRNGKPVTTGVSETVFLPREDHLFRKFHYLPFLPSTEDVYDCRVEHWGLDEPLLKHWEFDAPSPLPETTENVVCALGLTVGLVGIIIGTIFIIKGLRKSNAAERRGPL
Chain of HLA-DR DRB1*0301 (DR3) (P01903 26-254 limits assumed, other chains not shown): as above

For the sequence SFLQNPQTSLCCFRK, the IC50 came out at 1.83 µM in test [1] (read-out: DRB1 *0301), 0.671 µM in [2] (read-out: DRB1 *0401), 7.03 µM in test [3] (read-out: DRB1 *0701) and 7.07 µM in test [4] (read-out: DRB1 *0802).
MNALRRLPVICSFLV: the IC50 in [5] (DRB1 *0101) came out at 0.0021 µM; in [2] (DRB1 *0401), 0.013 µM; in test [4] it was 0.265 µM; in [6], 0.036 µM; in test [7], 0.0057 µM; in test [8], 2.56 µM.
With KCEFQDAYVILLSEKK, the IC50 in test [5] (DRB1 *0101) is 0.014 µM; in [1] it was 5.79 µM; in test [2] (DRB1 *0401), 0.073 µM; in [3] (DRB1 *0701), 0.336 µM; in test [4], 0.489 µM; in test [9], above 10.3 µM. In addition, the figures for the IC50 in test [6], in [7] and in test [8] were above 47.6 µM, above 19.6 µM and 0.02 µM, respectively.
For the sequence MSAMTNLAALFPPEG, the IC50 is 0.7 µM in [2] (read-out: DRB1 *0401), 36.1 µM in test [3] (read-out: DRB1 *0701), 73.9 µM in test [4] (read-out: DRB1 *0802) and above 187 µM in test [10].
On to FENLVAENVKPPKVD, for which the IC50 in [5] (DRB1 *0101) is 0.056 µM; in test [2] (DRB1 *0401), 2.37 µM; in test [3] (DRB1 *0701), 120 µM; in [4], above 25 µM; in test [9], 3.03 µM; in test [6] it was above 50.8 µM. Further, the IC50 stood at 9.3 µM in test [7] and 62.7 µM in [8].
Regarding MTNLAALFPPEGVS, the IC50 in [5] (read-out: DRB1 *0101) is 0.024 µM; in [2] (read-out: DRB1 *0401) it was above 40 µM; in [3] (read-out: DRB1 *0701), above 125 µM; in test [4] (read-out: DRB1 *0802), 39.2 µM; in test [10] it was 22.8 µM.
As to TAWTIVRVEILRYFY, the IC50 in [5] (read-out: DRB1 *0101) was 0.0078 µM; in test [1] (read-out: DRB1 *0301) it was 3 µM; in test [2] (read-out: DRB1 *0401), 0.044 µM; in test [3] (read-out: DRB1 *0701), 0.029 µM; in [4] (read-out: DRB1 *0802) it was 57.2 µM.
Consider VLFLQMMNVNLQKQL, for which the IC50 in test [5] (DRB1 *0101) was found to be 0.0063 µM; in test [2] (DRB1 *0401), 0.03 µM; in test [3] (DRB1 *0701) it was 8.44 µM; in test [4], 56.8 µM; in test [9], 0.0086 µM; in test [6], 8.2 µM. Further, the IC50 in test [7] is 0.012 µM; in [8] it was above 7.21 µM.
Regarding KPAVYTKVVHYRICWI, the IC50 in test [5] (read-out: DRB1 *0101) came out at 5 µM; in test [3] (read-out: DRB1 *0701), 2.4 µM; in test [4] (read-out: DRB1 *0802) it was 0.053 µM; in test [10] it was 3.68 µM.
For NHLINTPKIMPHHII, the IC50 in [2] (DRB1 *0401) was determined as 4.8 µM; in test [4], 1.3 µM; in test [6] it was 0.56 µM; in [7], 1.63 µM; in test [8], 8.88 µM.
On to VAQVRGGMVFELANS, for which the IC50 in test [2] (read-out: DRB1 *0401) was 0.662 µM; in [3] (read-out: DRB1 *0701), 4.45 µM; in test [4] (read-out: DRB1 *0802), above 98 µM; in test [10], 0.499 µM.
With LDIYQKLYIKQEEQK, the IC50 in test [5] (DRB1 *0101) is 2.83 µM; in test [2] (DRB1 *0401), 1.49 µM; in test [3] (DRB1 *0701), above 88.3 µM; in [4], 1.2 µM; in [9], 4.35 µM; in [6], 0.047 µM. Besides, the IC50 came out at 0.07 µM in test [7] and 6.96 µM in test [8].
As to ILFLVKMNALRRLPV, the IC50 is 0.0008 µM in test [5] (DRB1 *0101); 0.0056 µM in [2] (DRB1 *0401); 0.056 µM in test [3] (DRB1 *0701); 0.019 µM in test [4]; 0.0014 µM in test [6]; 0.0076 µM in test [7]. This sequence returned an IC50 in [8] of 0.014 µM.
